Laboratory results as given in patent US20250171457A1, “NITROGEN-CONTAINING HETEROCYCLIC COMPOUND HAVING NRF2 ACTIVATION EFFECT” (CHUGAI SEIYAKU KABUSHIKI KAISHA, priority 2022, published 2025).
Like-named read-outs stand apart in the source and are kept apart here.

Experiments:
[1] = system: Nrf2 transcriptional activity (pARE-Luc reporter) in HepG2 cells; assay: In vitro Nrf2 transcriptional activity measurement by ARE-dependent reporter assay in HepG2 cell; format: cell-based, human
Procedure, shortened: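 HepG2 cells transfected with pGL4.37 (pARE-Luc), replated onto compound and incubated 4 h at 37° C; luciferase read by Bright-Glo luminescence. Response normalized to 100% set by a reference compound at 3.75 μM; EC50 from dose-response curve.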

[2] = system: Nqo1 (NAD(P)H quinone dehydrogenase 1) mRNA, Nrf2 downstream molecule; assay: In vivo Nrf2 transcriptional activity measurement (Nqo1 mRNA in organs by qPCR); conditions: Mus musculus, C57BL/6J mice, 7 to 8 hours
Experimental: Test Example 2: In Vivo Nrf2 Transcriptional Activity Measurement
A test compound (solvent: 10 vol % dimethyl sulfoxide/50 mM glycine/32 mM sodium hydroxide/physiological saline) was administered to C57BL/6J mice (7-8 weeks old), which were euthanized by whole blood collection under isoflurane anesthesia 7 to 8 hours later, followed by the collection of various organs. mRNA was purified from the collected organs, and the mRNA expression level of Mapk1 as an internal control and the mRNA expression level of Nqo1 (NAD(P)H quinone dehydrogenase 1) as a typical Nrf2 downstream molecule were each measured by qPCR. The Nqo1 mRNA expression level was quantified by comparative CT, and an expression level ratio to a non-administration group was calculated. The administration of the test compound elevated the Nqo1 mRNA expression level in the various organs, confirming that the test compound also has a Nrf2-activating effect in vivo.

[3] = Oral, kidney, read-out: Nqo1 mRNA expression level ratio to non-administration group, Kidney
[4] = Oral, liver, read-out: Nqo1 mRNA expression level ratio to non-administration group, Liver
[5] = Oral, lung, read-out: Nqo1 mRNA expression level ratio to non-administration group, Lung
[6] = Homo sapiens, HepG2 cells transfected with pARE-Luc, 4 hours at 37° C., luciferase activity of Example 1-54 or Example 17-23 at 3.75 μM defined as 100%
[7] = ip, Intraperitoneal, kidney, read-out: Nqo1 mRNA expression level ratio to non-administration group, Kidney
[8] = ip, Intraperitoneal, liver, read-out: Nqo1 mRNA expression level ratio to non-administration group, Liver
[9] = ip, Intraperitoneal, lung, read-out: Nqo1 mRNA expression level ratio to non-administration group, Lung

SMILES	EC50 ([1]; HepG2 cells transfected with pARE-Luc, 4 hours at 37° C., luciferase activity of Example 1-54 or Example 17-23 at 3.75 μM defined as 100%, second printing of Table 20-1) [nM]	fold induction at 30 mg/kg [2, 3]	fold induction at 30 mg/kg [2, 4]	fold induction at 30 mg/kg [2, 5]	EC50 [1, 6] [nM]	fold induction at 15 mg/kg [2, 7]	fold induction at 15 mg/kg [2, 8]	fold induction at 15 mg/kg [2, 9]	fold induction at 15 mg/kg [2, 3]	fold induction at 15 mg/kg [2, 4]	fold induction at 15 mg/kg [2, 5]	fold induction at 10 mg/kg [2, 7]	fold induction at 10 mg/kg [2, 8]	fold induction at 10 mg/kg [2, 9]	EC50 ([1]; HepG2 cells, pARE-Luc reporter, 4 hours, 100% = Example 1-54 or Example 17-23 at 3.75 μM) [nM]
C[C@@H]1CN(c2ccc(C(=O)N3COc4c(cccc4-c4cc(N5C6CCC5COC6)c(C(=O)O)cc4F)C3)c(Cl)c2)[C@H](C)CN1C [Compound 13-21, 4-[3-[2-Chloro-4-[(2R,5R)-2,4,5-trimethylpiperazin-1-yl]benzoyl]-2,4-dihydro-1,3-benzoxazin-8-yl]-5-fluoro-2-(3-oxa-8-azabicyclo[3.2.1]octan-8-yl)benzoic acid]	2.3	2.9	4.9	3.6	–	–	–	–	–	–	–	–	–	–	–
COC1CC2(C1)CN(c1ccc(C(=O)N3COc4c(cccc4-c4cc(N5C6CCC5COC6)c(C(=O)O)cc4F)C3)c(Cl)c1)C2 [Compound 1-88, 4-[3-[2-Chloro-4-(6-methoxy-2-azaspiro[3.3]heptan-2-yl)benzoyl]-2,4-dihydro-1,3-benzoxazin-8-yl]-5-fluoro-2-(3-oxa-8-azabicyclo[3.2.1]octan-8-yl)benzoic acid]	–	–	–	–	2.1	3	4.3	6.1	3.4	5.4	8.9	–	–	–	–
O=C(O)c1cc(F)c(-c2cccc3c2OCN(C(=O)c2c(Cl)cc(N4CC5(C4)OCCCO5)cc2Cl)C3)cc1N1C2CCC1COC2 [Compound 5-2, 4-[3-[2,6-Dichloro-4-(5,9-dioxa-2-azaspiro[3.5]nonan-2-yl)benzoyl]-2,4-dihydro-1,3-benzoxazin-8-yl]-5-fluoro-2-(3-oxa-8-azabicyclo[3.2.1]octan-8-yl)benzoic acid]	–	4	6.9	20	1.3	–	–	–	–	–	–	4.3	6.9	20	–
COCCN1CCN(c2cc(Cl)c(C(=O)N3COc4c(cccc4-c4cc(N5CCOCC5)c(C(=O)O)cc4F)C3)c(Cl)c2)CC1 [Compound 1-54, 4-[3-[2,6-Dichloro-4-[4-(2-methoxyethyl)piperazin-1-yl]benzoyl]-2,4-dihydro-1,3-benzoxazin-8-yl]-5-fluoro-2-morpholin-4-ylbenzoic acid]	–	4.9	7.4	20	1.5	–	–	–	–	–	–	4.6	6.7	18	–
CC1COC2(CN(c3cc(Cl)c(C(=O)N4COc5c(cccc5-c5cc(N6C7CCC6COC7)c(C(=O)O)cc5F)C4)c(Cl)c3)C2)OC1 [Compound 5-7, 4-[3-[2,6-Dichloro-4-(7-methyl-5,9-dioxa-2-azaspiro[3.5]nonan-2-yl)benzoyl]-2,4-dihydro-1,3-benzoxazin-8-yl]-5-fluoro-2-(3-oxa-8-azabicyclo[3.2.1]octan-8-yl)benzoic acid]	–	–	–	–	1.7	–	–	–	–	–	–	4	5.4	18	–
CO[C@@H]1CN(c2cc(Cl)c(C(=O)N3COc4c(cccc4-c4cc(N5C6CCC5COC6)c(C(=O)O)cc4F)C3)c(Cl)c2)[C@@H]1C [Compound 1-4, 4-[3-[2,6-Dichloro-4-[(2R,3R)-3-methoxy-2-methylazetidin-1-yl]benzoyl]-2,4-dihydro-1,3-benzoxazin-8-yl]-5-fluoro-2-(3-oxa-8-azabicyclo[3.2.1]octan-8-yl)benzoic acid]	–	5	8.1	20	1.6	–	–	–	–	–	–	4.4	6.5	13	–
COC1CC2(C1)CN(c1cc(Cl)c(C(=O)N3COc4c(cccc4-c4cc(N5C6CCC5COC6)c(C(=O)O)cc4F)C3)c(Cl)c1)C2 [Compound 13-16, 4-[3-[2,6-Dichloro-4-(6-methoxy-2-azaspiro[3.3]heptan-2-yl)benzoyl]-2,4-dihydro-1,3-benzoxazin-8-yl]-5-fluoro-2-(3-oxa-8-azabicyclo[3.2.1]octan-8-yl)benzoic acid]	–	4.5	6	22	–	4.8	6.6	20	–	–	–	–	–	–	0.95
COC1(OC)CN(c2cc(Cl)c(C(=O)N3COc4c(cccc4-c4ccc(C(=O)O)c(N5C6CCC5COC6)c4)C3)c(Cl)c2)C1 [Compound 5-16, 4-[3-[2,6-Dichloro-4-(3,3-dimethoxyazetidin-1-yl)benzoyl]-2,4-dihydro-1,3-benzoxazin-8-yl]-2-(3-oxa-8-azabicyclo[3.2.1]octan-8-yl)benzoic acid]	–	–	–	–	3.5	–	–	–	3.6	4.8	14	–	–	–	–
